Source: the CheMixHub viscosity set
Values joined by “and” are separate entries in the source; they are usually repeats but may differ in a detail not shown here. Equal values may be shown once.

Test: xn = mol fraction of the nth substance listed

CCCCCCC + CCCO
Conditions | viscosity
293.15 K, 101 kPa, x1 = 0.102 | 1.641 mPa·s
293.15 K, 101 kPa, x1 = 0.2018 | 1.291 mPa·s
293.15 K, 101 kPa, x1 = 0.299 | 1.052 mPa·s
293.15 K, 101 kPa, x1 = 0.4005 | 0.8426 mPa·s
293.15 K, 101 kPa, x1 = 0.5017 | 0.6995 mPa·s
293.15 K, 101 kPa, x1 = 0.6033 | 0.5899 mPa·s
293.15 K, 101 kPa, x1 = 0.7025 | 0.5126 mPa·s
293.15 K, 101 kPa, x1 = 0.801 | 0.4793 mPa·s
293.15 K, 101 kPa, x1 = 0.8918 | 0.4475 mPa·s
298.15 K, 100 kPa, x1 = 0.0569 | 1.654 mPa·s
298.15 K, 100 kPa, x1 = 0.1025 | 1.453 mPa·s
298.15 K, 100 kPa, x1 = 0.1996 | 1.138 mPa·s
298.15 K, 100 kPa, x1 = 0.3052 | 0.9066 mPa·s
298.15 K, 100 kPa, x1 = 0.4045 | 0.75 mPa·s
298.15 K, 100 kPa, x1 = 0.5038 | 0.6265 mPa·s
298.15 K, 100 kPa, x1 = 0.6039 | 0.5366 mPa·s
298.15 K, 100 kPa, x1 = 0.7066 | 0.4713 mPa·s
298.15 K, 100 kPa, x1 = 0.8001 | 0.4307 mPa·s
298.15 K, 100 kPa, x1 = 0.8488 | 0.4168 mPa·s
298.15 K, 100 kPa, x1 = 0.9551 | 0.4008 mPa·s
298.15 K, 100 kPa, x2 = 0.1648 | 0.4406 mPa·s
298.15 K, 100 kPa, x2 = 0.3402 | 0.5464 mPa·s
298.15 K, 100 kPa, x2 = 0.5002 | 0.7014 mPa·s
298.15 K, 100 kPa, x2 = 0.6602 | 0.9498 mPa·s
298.15 K, 100 kPa, x2 = 0.8383 | 1.294 mPa·s
298.15 K, 101 kPa, x1 = 0.0164 | 1.804 mPa·s
298.15 K, 101 kPa, x1 = 0.102 | 1.477 mPa·s
298.15 K, 101 kPa, x1 = 0.2018 | 1.166 mPa·s
298.15 K, 101 kPa, x1 = 0.299 | 0.9499 mPa·s
298.15 K, 101 kPa, x1 = 0.4005 | 0.7687 mPa·s
298.15 K, 101 kPa, x1 = 0.5017 | 0.6453 mPa·s
298.15 K, 101 kPa, x1 = 0.6033 | 0.5511 mPa·s
298.15 K, 101 kPa, x1 = 0.7025 | 0.4886 mPa·s
298.15 K, 101 kPa, x1 = 0.801 | 0.4419 mPa·s
298.15 K, 101 kPa, x1 = 0.8918 | 0.4174 mPa·s
298.15 K, 101 kPa, x2 = 0.0584 | 0.39 mPa·s
298.15 K, 101 kPa, x2 = 0.1192 | 0.408 mPa·s
298.15 K, 101 kPa, x2 = 0.1482 | 0.416 mPa·s
298.15 K, 101 kPa, x2 = 0.2647 | 0.454 mPa·s
298.15 K, 101 kPa, x2 = 0.3436 | 0.489 mPa·s
298.15 K, 101 kPa, x2 = 0.4121 | 0.53 mPa·s
298.15 K, 101 kPa, x2 = 0.5026 | 0.606 mPa·s
298.15 K, 101 kPa, x2 = 0.5659 | 0.679 mPa·s
298.15 K, 101 kPa, x2 = 0.654 | 0.811 mPa·s
298.15 K, 101 kPa, x2 = 0.6877 | 0.872 mPa·s
298.15 K, 101 kPa, x2 = 0.7447 | 0.994 mPa·s
298.15 K, 101 kPa, x2 = 0.8298 | 1.222 mPa·s
298.15 K, 101.33 kPa, x1 = 0.0127 | 1.873 mPa·s
298.15 K, 101.33 kPa, x2 = 0.0468 | 0.393 mPa·s
298.15 K, 101.33 kPa, x2 = 0.0919 | 0.409 mPa·s
298.15 K, 101.33 kPa, x2 = 0.0989 | 0.403 mPa·s
298.15 K, 101.33 kPa, x2 = 0.2079 | 0.4331 mPa·s
298.15 K, 101.33 kPa, x2 = 0.2269 | 0.46 mPa·s
298.15 K, 101.33 kPa, x2 = 0.2621 | 0.454 mPa·s
298.15 K, 101.33 kPa, x2 = 0.34 | 0.52 mPa·s
298.15 K, 101.33 kPa, x2 = 0.362 | 0.4992 mPa·s
298.15 K, 101.33 kPa, x2 = 0.4038 | 0.571 mPa·s
298.15 K, 101.33 kPa, x2 = 0.4569 | 0.576 mPa·s
298.15 K, 101.33 kPa, x2 = 0.521 | 0.682 mPa·s
298.15 K, 101.33 kPa, x2 = 0.5667 | 0.69 mPa·s
298.15 K, 101.33 kPa, x2 = 0.598 | 0.776 mPa·s
298.15 K, 101.33 kPa, x2 = 0.6616 | 0.876 mPa·s
298.15 K, 101.33 kPa, x2 = 0.6636 | 0.832 mPa·s
298.15 K, 101.33 kPa, x2 = 0.7478 | 0.999 mPa·s
298.15 K, 101.33 kPa, x2 = 0.7849 | 1.154 mPa·s
298.15 K, 101.33 kPa, x2 = 0.8202 | 1.187 mPa·s
298.15 K, 101.33 kPa, x2 = 0.879 | 1.447 mPa·s
298.15 K, 101.33 kPa, x2 = 0.9458 | 1.659 mPa·s
298.15 K, 101.33 kPa, x2 = 0.967 | 1.811 mPa·s
303.15 K, 101 kPa, x1 = 0.0164 | 1.609 mPa·s
303.15 K, 101 kPa, x1 = 0.102 | 1.319 mPa·s
303.15 K, 101 kPa, x1 = 0.2018 | 1.047 mPa·s
303.15 K, 101 kPa, x1 = 0.299 | 0.8669 mPa·s
303.15 K, 101 kPa, x1 = 0.4005 | 0.7025 mPa·s
303.15 K, 101 kPa, x1 = 0.5017 | 0.5949 mPa·s
303.15 K, 101 kPa, x1 = 0.6033 | 0.5056 mPa·s
303.15 K, 101 kPa, x1 = 0.7025 | 0.4543 mPa·s
303.15 K, 101 kPa, x1 = 0.801 | 0.4254 mPa·s
303.15 K, 101 kPa, x1 = 0.8918 | 0.3943 mPa·s
303.15 K, 101 kPa, x2 = 0.0637 | 0.364 mPa·s and 0.344 mPa·s
303.15 K, 101 kPa, x2 = 0.1192 | 0.374 mPa·s
303.15 K, 101 kPa, x2 = 0.2374 | 0.415 mPa·s
303.15 K, 101 kPa, x2 = 0.3198 | 0.444 mPa·s
303.15 K, 101 kPa, x2 = 0.4121 | 0.496 mPa·s
303.15 K, 101 kPa, x2 = 0.5026 | 0.569 mPa·s
303.15 K, 101 kPa, x2 = 0.6029 | 0.674 mPa·s
303.15 K, 101 kPa, x2 = 0.6539 | 0.742 mPa·s
303.15 K, 101 kPa, x2 = 0.6876 | 0.785 mPa·s
303.15 K, 101 kPa, x2 = 0.7445 | 0.889 mPa·s
303.15 K, 101 kPa, x2 = 0.7867 | 0.975 mPa·s
303.15 K, 101 kPa, x2 = 0.8298 | 1.096 mPa·s
303.15 K, 101 kPa, x2 = 0.884 | 1.23 mPa·s
303.15 K, 101 kPa, x2 = 0.9695 | 1.544 mPa·s
308.15 K, 101 kPa, x1 = 0.102 | 1.189 mPa·s
308.15 K, 101 kPa, x1 = 0.2018 | 0.9659 mPa·s
308.15 K, 101 kPa, x1 = 0.299 | 0.7776 mPa·s
308.15 K, 101 kPa, x1 = 0.4005 | 0.6444 mPa·s
308.15 K, 101 kPa, x1 = 0.5017 | 0.5454 mPa·s
308.15 K, 101 kPa, x1 = 0.6033 | 0.4781 mPa·s
308.15 K, 101 kPa, x1 = 0.7025 | 0.4308 mPa·s
308.15 K, 101 kPa, x1 = 0.801 | 0.3988 mPa·s
308.15 K, 101 kPa, x1 = 0.8918 | 0.3783 mPa·s
308.15 K, 101 kPa, x2 = 0.1596 | 0.36 mPa·s
308.15 K, 101 kPa, x2 = 0.2647 | 0.399 mPa·s
308.15 K, 101 kPa, x2 = 0.3436 | 0.435 mPa·s
308.15 K, 101 kPa, x2 = 0.4385 | 0.489 mPa·s
308.15 K, 101 kPa, x2 = 0.5026 | 0.532 mPa·s
308.15 K, 101 kPa, x2 = 0.5659 | 0.584 mPa·s
308.15 K, 101 kPa, x2 = 0.6029 | 0.619 mPa·s
308.15 K, 101 kPa, x2 = 0.6877 | 0.728 mPa·s
308.15 K, 101 kPa, x2 = 0.7447 | 0.817 mPa·s
308.15 K, 101 kPa, x2 = 0.7867 | 0.909 mPa·s
308.15 K, 101 kPa, x2 = 0.884 | 1.158 mPa·s
308.15 K, 101 kPa, x2 = 0.9695 | 1.444 mPa·s
308.15 K, 101.33 kPa, x1 = 0.0127 | 1.506 mPa·s
308.15 K, 101.33 kPa, x2 = 0.0468 | 0.3551 mPa·s
308.15 K, 101.33 kPa, x2 = 0.0989 | 0.36 mPa·s
308.15 K, 101.33 kPa, x2 = 0.2079 | 0.3821 mPa·s
308.15 K, 101.33 kPa, x2 = 0.2621 | 0.4018 mPa·s
308.15 K, 101.33 kPa, x2 = 0.362 | 0.4432 mPa·s
308.15 K, 101.33 kPa, x2 = 0.4569 | 0.492 mPa·s
308.15 K, 101.33 kPa, x2 = 0.5667 | 0.5902 mPa·s
308.15 K, 101.33 kPa, x2 = 0.6636 | 0.7 mPa·s
308.15 K, 101.33 kPa, x2 = 0.7478 | 0.8319 mPa·s
308.15 K, 101.33 kPa, x2 = 0.8202 | 0.98 mPa·s
308.15 K, 101.33 kPa, x2 = 0.9458 | 1.347 mPa·s
